Results as given in patent US20110251379A1, “COMPOUNDS USEFUL FOR TREATING NEURODEGENERATIVE DISORDERS” (Satori Pharmaceuticals, Inc., priority 2010, published 2011).

Tested on: amyloid-beta (1-42) peptide
Assay: ELISA assay of amyloid-beta (1-42) in conditioned media of 2B7 cells
Assay type: cell-based
Details: Aβ-42, 20 umol/L
Procedure: Compounds of the present invention, and extracts comprising said compounds, may be assayed as inhibitors of amyloid-beta (1-42) peptide in vitro or in vivo. Such assay methods are described in detail in U.S. Pat. No. 6,649,196, the entirety of which is hereby incorporated herein by reference.
In certain embodiments, provided compounds of the present invention, and extracts comprising said compounds, were assayed as inhibitors of amyloid-beta (1-42) peptide in vitro using an ELISA assay.
Capture Plate Prep: • 6E10 was diluted to 5.0 ug/mL in 100 mM NaHCO3 pH 8.2 (10 ug aliquot per 2 mL buffer); • 100 uL capture antibody solution was added to wells of 96 well plate; • Incubated overnight at 4° C. sealed; • Aspirated off capture antibody; and • Blocked with 250 uL of Blocking Buffer for 2-4 hours at rt sealed.
Conditioned Media: • Cultured 2B7 cells in 96 well plate with 250 uL of media per well until confluent; • Prepared serial dilution of compounds in DMSO at 100× the final desired concentration; • Washed wells with 2B7 cells lx with 250 uL of media; • Diluted DMSO stocks 1:100 into media and mix; and • Added 250 μL of media containing compounds (1% DMSO) to wells with 2B7 cells for 5 hours at 37° C.
Elisa Sample Prep: • Diluted conditioned media 1:2 into blocking buffer; • NOTE: If assaying for A-Beta 1-40 or total A-Beta, then diluted above sample 1:10 with a 50/50 mixture of non-conditioned media containing 1% DMSO and blocking buffer.
Standard Curve Sample Prep: • Diluted appropriate A-Beta peptide stock (stored in 1% NH4OH) to 200 μg/mL in blocking buffer; • Prepared a 1:2 serial dilution from the 200 μg/mL sample (150 μL into 150 μL blocking buffer); and • Added equal volume of standard curve samples to non-conditioned media with 1% DMSO.
Overnight Sample Incubation: • Aspirated blocking buffer from blocked plate; • Added 100 μL of samples to wells of plate (samples will be 50% media with 1% DMSO and 50% blocking buffer; and • Incubated overnight at 4° C. sealed.
Addition of Detection Antibody: • Aspirated off samples, wash 2× with 250 μL blocking buffer; and • Added 100 μL detection antibody labeled with HRP at 0.25 ug/mL in blocking buffer for 4 hours at room temperature sealed.
Final Wash and Readout: • Aspirated wells, wash 5× with 250 μL of PBS-T (2 minutes each wash at 30 RPM); • Added 100 μL TMB for 20 minutes; • Added 100 μL of 1M H3PO4; and • Read at 450 nm.
Coating Buffer (100 mM NaHCO3 pH 8.2)
PBS-T (PBS with 0.05% Tween-20)
Blocking Buffer (1% BSA in PBS-T)

Compound | % Inhibition (range)
CC(=O)N1CC(N2CCOC(OC3CCC45CC46CCC4(C)C7C(C)CC(C(O)C(C)(C)O)OC7C(O)C4(C)C6CCC5C3(C)C)C2)C1 (stereo not drawn) | F F (% inhibition of <25%)

Same assay, conditions: Aβ-42, 20 umol/L; read-out: % Inhibition (range)

Compound | inhibition at 20 µM [%]
C[C@@H]1C[C@H](C(=O)C(C)(C)O)OC2C1[C@@]1(C)CC[C@@]34C[C@@]35CC[C@H](O)C(C)(C)[C@@H]5CC[C@H]4[C@]1(C)[C@H]2O (stereo partly drawn) | < 25
C[C@@H]1C[C@H]([C@H](OC(N)=O)C(C)(C)O)OC2C1[C@@]1(C)CC[C@@]34C[C@@]35CC[C@H](O)C(C)(C)[C@@H]5CC[C@H]4[C@]1(C)[C@H]2O (stereo partly drawn) | 25 to 75
CC(=O)/C=C/[C@H]1C[C@@H](C)C2C(O1)[C@H](O)[C@@]1(C)[C@@H]3CC[C@H]4C(C)(C)[C@@H](O)CC[C@@]45C[C@@]35CC[C@]21C (stereo partly drawn) | < 25
CC(=O)CCC1C[C@@H](C)C2C(O1)[C@H](O)[C@@]1(C)[C@@H]3CC[C@H]4C(C)(C)[C@@H](O)CC[C@@]45C[C@@]35CC[C@]21C (stereo partly drawn) | < 25
CC(=O)O[C@@H]([C@H]1C[C@@H](C)C2C(O1)[C@H](OC(N)=O)[C@@]1(C)[C@@H]3CC[C@H]4C(C)(C)[C@@H](OC(N)=O)CC[C@@]45C[C@@]35CC[C@]21C)C(C)(C)O (stereo partly drawn) | < 25

Same assay, conditions: Aβ-42, 100 umol/L

Compound | % Inhibition (range)
CC1CC(C(O)C(C)(C)O)OC2C1C1(C)CCC34CC35CCC(OC3CN(C(=O)Cc6cccnc6)CCO3)C(C)(C)C5CCC4C1(C)C2O (stereo not drawn) | F (% inhibition of <25%)
CC1CC(C(O)C(C)(C)O)OC2C1C1(C)CCC34CC35CCC(OC3CN(C(=O)Cc6ccccn6)CCO3)C(C)(C)C5CCC4C1(C)C2O (stereo not drawn) | F (% inhibition of <25%)
CC1CC(C(O)C(C)(C)O)OC2C1C1(C)CCC34CC35CCC(OC3CN(C(=O)Cc6ccncc6)CCO3)C(C)(C)C5CCC4C1(C)C2O (stereo not drawn) | F (% inhibition of <25%)
CC1CC(C(O)C(C)(C)O)OC2C1C1(C)CCC34CC35CCC(OC3CN(C(=O)c6cccnc6)CCO3)C(C)(C)C5CCC4C1(C)C2O (stereo not drawn) | F (% inhibition of <25%)
CC1CC(C(O)C(C)(C)O)OC2C1C1(C)CCC34CC35CCC(OC3CN(C(=O)CN6CCOCC6)CCO3)C(C)(C)C5CCC4C1(C)C2O (stereo not drawn) | F (% inhibition of <25%)
CC(=O)N1CC(N2CCOC(OC3CCC45CC46CCC4(C)C7C(C)CC(C(O)C(C)(C)O)OC7C(O)C4(C)C6CCC5C3(C)C)C2)C1 (stereo not drawn) | F F (% inhibition of <25%)
CC1CC(C(O)C(C)(C)O)OC2C1C1(C)CCC34CC35CCC(OC3CN(C6CC6)CCO3)C(C)(C)C5CCC4C1(C)C2O (stereo not drawn) | F (% inhibition of <25%)
CC1CC(C(O)C(C)(C)O)OC2C1C1(C)CCC34CC35CCC(OC3CN(CCF)CCO3)C(C)(C)C5CCC4C1(C)C2O (stereo not drawn) | F (% inhibition of <25%)

Same assay, conditions: Aβ-42, 100 umol/L; read-out: % Inhibition (range)

Compound | inhibition at 100 µM [%]
CCC(=O)O[C@@H]([C@H]1C[C@@H](C)C2C(O1)C(N)[C@@]1(C)[C@@H]3CC[C@H]4C(C)(C)[C@@H](O)CC[C@@]45C[C@@]35CC[C@]21C)C(C)(C)O (stereo partly drawn) | 25 to 75
CC(=O)O[C@@H]([C@H]1C[C@@H](C)C2=C(O1)[C@H](O[Si](C)(C)C(C)(C)C)[C@@]1(C)[C@@H]3CC[C@H]4C(C)(C)[C@H](N)CC[C@@]45C[C@@]35CC[C@]21C)C(C)(C)O | < 25
C[C@@H]1C[C@H](C=O)OC2C1[C@@]1(C)CC[C@@]34C[C@@]35CC[C@H](O)C(C)(C)[C@@H]5CC[C@H]4[C@]1(C)[C@H]2O (stereo partly drawn) | < 25
C[C@@H]1C[C@H](CO)OC2C1[C@@]1(C)CC[C@@]34C[C@@]35CC[C@H](O)C(C)(C)[C@@H]5CC[C@H]4[C@]1(C)[C@H]2O (stereo partly drawn) | < 25
CC(=O)O[C@@H]([C@H]1C[C@@H](C)C2C(O1)[C@H](O)[C@@]1(C)[C@@H]3CC[C@H]4C(C)(C)C(=O)CC[C@@]45C[C@@]35CC[C@]21C)C(C)(C)O (stereo partly drawn) | 25 to 75
CC(=O)O[C@@H]([C@H]1C[C@@H](C)C2C(O1)[C@H](O)[C@@]1(C)[C@@H]3CC[C@H]4C(C)(C)[C@H](N)CC[C@@]45C[C@@]35CC[C@]21C)C(C)(C)O (stereo partly drawn) | 25 to 75
CC(=O)O[C@@H]([C@H]1C[C@@H](C)C2C(O1)[C@H](O)[C@@]1(C)[C@@H]3CC[C@H]4C(C)(C)[C@H](N5CCOCC5)CC[C@@]45C[C@@]35CC[C@]21C)C(C)(C)O (stereo partly drawn) | < 25
